Test results as given in PubChem BioAssay (NCI).
“And” between values parts separate entries of the source, which are not always exact repeats. Identical values can stand only once.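 Test compounds were applied to cells in 96-well plates for 48 hours at 5 doses. GI50 marks 50% less growth. TGI: total growth inhibition.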

Legend:
Experiment in all cases: NCI-60 cell line screen, 48 h
MDA-MB-231 breast = system: MDA-MB-231 breast
NCI-H226 lung = system: NCI-H226 lung
MCF7 breast = system: MCF7 breast
T-47D breast = system: T-47D breast
BT-549 breast = system: BT-549 breast
SNB-78 CNS = system: SNB-78 CNS
M19-MEL melanoma = system: M19-MEL melanoma
LXFL 529 NSCLC = system: LXFL 529 NSCLC
KM20L2 colon = system: KM20L2 colon

Row | Compound | GI50 (MDA-MB-231 breast) | TGI (MDA-MB-231 breast) | GI50 (NCI-H226 lung) | TGI (NCI-H226 lung) [µM] | GI50 (MCF7 breast) | TGI (MCF7 breast) | GI50 (T-47D breast) | TGI (T-47D breast) | TGI (BT-549 breast) | GI50 (BT-549 breast) | TGI (SNB-78 CNS) [µM] | TGI (M19-MEL melanoma) [µM] | TGI (LXFL 529 NSCLC) [µM] | TGI (KM20L2 colon) [µM]
1 | Cc1ccc(NC2=C(Cl)C(=O)N(Cc3ccccc3)C2=O)cc1O | 21 µM | 61.5 µM | 18.1 µM | 60.6 | 32.2 µM | > 100 µM | 44.9 µM | > 100 µM | – | – | – | – | – | –
2 | Cc1coc2c1CC1(C)C(CCC(O)C1C)C2 (stereo not given) | – | > 100 µM | – | > 100 | – | > 100 µM | – | > 100 µM | > 100 µM | – | – | – | – | –
3 | COC1CCC(N2C(=O)CNc3ncc(-c4ccc(C(C)(C)O)nc4)nc32)CC1 (stereo not given) | 0.52 µM and 0.283 µM | 4.8 µM and 25.3 µM | 0.305 µM and 0.226 µM | > 41.8 | 0.305 µM and 0.127 µM | > 10 µM and 12.6 µM | 0.159 µM and 0.0258 µM | 0.786 µM and 0.306 µM | 3.6 µM and 0.991 µM | 0.329 µM and 0.0572 µM | – | – | – | –
4 | Cc1ccc(C(=O)/C(=C/c2ccc([N+](=O)[O-])cc2)SCc2ccc(Cl)cc2)cc1 | 1.96 µM | 5.8 µM | > 100 µM | > 100 | 0.375 µM | 3.08 µM | 2.9 µM | 36.7 µM | 4.09 µM | 1.93 µM | – | – | – | –
5 | NC(=O)c1sc(-n2cnc3ccccc32)cc1OCc1ccccc1Br | 4.96 µM | > 25 µM | 11.9 µM | > 25 | 0.86 µM | > 25 µM | 23.1 µM | > 25 µM | > 25 µM | 9.68 µM | – | – | – | –
6 | O=C1CC(c2ccc3c(c2)OCO3)Nc2ccccc21 (stereo not given) | 8.06 µM | 36.5 µM | 24.6 µM | > 88 | 4.96 µM | 36.7 µM | 5.23 µM | 73.9 µM | 55.5 µM | 5.99 µM | – | – | – | –
7 | NC(Cc1c[nH]c2c(O)cccc12)C(=O)O (stereo not given) | > 100 µM | > 100 µM | > 100 µM | > 100 | > 100 µM | > 100 µM | > 100 µM | > 100 µM | > 100 µM | > 100 µM | – | – | – | –
8 | CSc1nc2c(c(=O)[nH]1)N=C1c3ccccc3C(=O)C1C(c1ccccc1)N2 (stereo not given) | 4.09 µM | > 100 µM | 4.2 µM | > 100 | 2.4 µM | > 100 µM | 4.6 µM | > 100 µM | > 100 µM | 5.35 µM | – | – | – | –
9 | COc1cc(-c2nn(-c3ccc(NC(=O)c4ccc(Cl)c(C(F)(F)F)c4)cc3)cc2-c2ccncc2)ccc1Cl | 1.6 µM | 6.09 µM | 5.31 µM | > 100 | 3.05 µM | > 100 µM | 2.98 µM | > 100 µM | 32.5 µM | 3.08 µM | – | – | – | –
10 | O=C(Nc1ccccc1)NS(=O)(=O)c1ccc(-n2nc3c(c2-c2cccs2)Cc2ccccc2-3)cc1 | 15.3 µM | 60.8 µM | 19.2 µM | 59 | 13.4 µM | > 100 µM | 37.9 µM | > 100 µM | 67.9 µM | 24.1 µM | – | – | – | –
11 | Cn1c2ccccc2c2c(Nc3ccccc3)c3ccccc3nc21 | 2.75 µM | 22.9 µM | 16.4 µM | 46.4 | 5.29 µM | 25.4 µM | 40.5 µM | > 100 µM | 47.8 µM | 21.3 µM | – | – | – | –
12 | CN/N=C(/Cc1occc(=O)c1O)C(=O)Nc1ccccc1C | – | – | – | > 100 | – | – | – | – | – | – | > 100 | > 100 | > 100 | > 100
13 | OCc1ccc(N2CCC2c2ccc(F)cc2)cc1Cl (stereo not given) | 22.6 µM | > 68.3 µM | 0.0912 µM | 0.322 | 0.69 µM | 24.5 µM | 0.209 µM | 1.72 µM | 49.9 µM | 21.2 µM | – | – | – | –
14 | O=C(Nc1ccccc1OC(F)(F)F)Nc1n[nH]c2ccccc12 | 17.9 µM | > 100 µM | 26.1 µM | > 100 | 1.75 µM | > 100 µM | 37.5 µM | > 100 µM | > 100 µM | 76.4 µM | – | – | – | –
15 | Cc1ccc2c(=O)cc(-c3ccc(F)cc3)[nH]c2n1 | – | > 100 µM | – | > 100 | – | > 100 µM | – | > 100 µM | > 100 µM | – | – | – | – | –
16 | CCCCCN(CCCCC)CC(O)c1cc(C)c2ccc3cc(C(C)C)ccc3c2c1 (stereo not given) | 1.79 µM | 3.77 µM | 1.85 µM | 3.97 | 1.75 µM | 3.48 µM | 1.95 µM | 4.38 µM | 3.51 µM | 1.85 µM | – | – | – | –
17 | CC1=C(C(=O)Nc2ccc(Cl)c(Cl)c2)C(c2cccc(Oc3ccccc3)c2)NC(=S)N1 (stereo not given) | 8.69 µM | 16.6 µM | 9.68 µM | 19.5 | – | – | 10.9 µM | 21.4 µM | 12.5 µM | 5.94 µM | – | – | – | –
18 | COC1=CC(c2ccc[nH]2)=N/C1=C\c1[nH]c(C)c(C(=O)OC(C)C)c1C | 0.0252 µM | 0.274 µM | 0.0795 µM | 1.28 | 0.0487 µM | 1.9 µM | 0.0522 µM | 1.74 µM | 2.68 µM | 0.061 µM | – | – | – | –
19 | c1ccc2cc(-c3cc(-c4cc(-c5ccc6ccccc6c5)on4)no3)ccc2c1 | – | > 100 µM | – | > 100 | – | > 100 µM | – | > 100 µM | > 100 µM | – | – | – | – | –
20 | CCOC(=O)[C@]1(OC(C)=O)C[C@H](OC(C)=O)[C@@H](C(F)COP(=O)(OCc2ccccc2)OCc2ccccc2)O1 (stereo not given in full) | – | > 100 µM | – | > 100 | 20.8 µM and > 100 µM | 45.6 µM and > 100 µM | 34.2 µM and > 100 µM | 93.1 µM and > 100 µM | > 100 µM | – | – | – | – | –
21 | NNC(=O)Nc1cccnc1 | – | > 100 µM | – | > 100 | – | > 100 µM | – | > 100 µM | – | – | – | – | – | –
22 | CC1(C)CCc2c(c3c(c4c(=O)c(O)c(-c5ccc(O)cc5)oc24)OC(C)(C)CC3)O1 | 28.3 µM | 84.1 µM | 58.5 µM | > 100 | > 100 µM | > 100 µM | 72.7 µM | > 100 µM | – | – | – | – | – | –
23 | Clc1ccc2c(NCCCCNc3nc(N4CCCCC4)nc4ccccc34)ccnc2c1 | 1.75 µM | 4.28 µM | 3.85 µM | 16.5 | 2.52 µM | 10.8 µM | 2.12 µM | 4.3 µM | 4.1 µM | 1.78 µM | – | – | – | –
